Results from US20100093861A1, “TREATMENT OF INSULIN RESISTANCE OR DISEASES ASSOCIATED WITH INSULIN RESISTANCE” (Stevia ApS, priority 2006, published 2010).

Columns and labels:
KKAy-mice = assay: In vivo study of plasma insulin, glucose, triglycerides and body weight in KKAy-mice after isosteviol (Example 3)
Description: Twenty six male KKAy-mice (Clea Japan, Tokyo, Japan), all 5 week-old, weighing 22-25 g were randomized to 2 groups and treated for 9 weeks with; • A: standard chow diet (control); • B: standard chow diet+20 mg/kg BW of Isosteviol (hereinafter ISV).
The composition of the standard chow diet dry matter was: Protein 24%, carbohydrate 71%, and Lipids 5%. ISV (ent-16-ketobeyeran-19-oic acid; Wako Pure Chemical Industries, Osaka, Japan) was incorporated in the mice food pellet and administered orally.
Hormones and lipids were measured from blood sample at start and end of the treatment period. Blood sample was taken from the tail of the animals on chilled tubes containing heparin/aprotinin and centrifuged (4000 g, 60 seconds, […]), and plasma was frozen for subsequent analysis of insulin, glucose and triglycerides. Fasting blood glucose, as well as BW, was measured before and after intervention.
Plasma blood glucose was determined using the glucose oxidase method (GOD-PAP,
Boehringer Mannheim, GmbH Germany). Insulin was determined by radioimmunoassay with a guinea pig antiporcine insulin antibody (PNILGP4, Novo Nordisk, Bagsvaerd, Denmark), and mono-[125I]-(Tyr A14) labelled human insulin (Novo Nordisk) as tracer and rat insulin (Novo Nordisk) as standard. We separated free and bound radioactivity using ethanol (Heding, 1972). Interassay and intra-assay variation was below 10%. […] Triglycerides was determined using colorimetric kits (Roche Diagnostics, Boehringer Mannheim, GmbH Germany). The fasting glucose-insulin index was calculated as the product of plasma insulin and plasma glucose ([plasma insulin ng/ml]×[plasma glucose mmol/l]/1000) and compared between groups as relative units (Chang et al., 2005).

[1] = system: total insulin protein content of KKAy islets; assay: Insulin content of isolated islets from KKAy mice (RIA); type: in vivo; conditions: KKAy mice after 9 weeks treatment
Description: The Insulin content of isolated islet from the KKAy mice was measured using RIA as described for the Insulin assay. Total islet protein was purified from the organic phase during from the RNA Trizol preparation according to the manufactures instruction (Gibco BRL, Life Technologies, Roskilde, DK).
In order to clarify if this increased levels of Ins1 mRNA are translated, the total insulin content from the very limited protein fraction collected from the organic phase during RNA preparation from isolated islets from the KKAY and ISV group was measured using RIA (FIG. 17). The insulin content from the ISV group compared to the KKAy control was 2.4 fold (p=0.003) higher, supporting the gene expression analysis.

GLUT2 = assay: Relative real time RT-PCR in islets of KKAy mice (Example 3): GLUT2; type: in vivo; conditions: 9 weeks
Description: Islets were isolated by the collagenase digestion technique. In brief, the animals were anesthetized with pentobarbital (50 mg/kg intraperitoneally) and midline laparotomy was performed. The pancreas was retrogradely filled with 3 mL ice-cold Hanks balanced salt solution (([HBSS] Sigma Chemical, St Louis, Mo.) supplemented with 0.3 mg/ml collagenase Boehringer Mannheim GmbH, Germany). The pancreas was subsequently removed and incubated for 19 minutes at 37° C. After rinsing in HBSS, the islets were handpicked under a stereomicroscope and immediately transferred to a tubes containing 1 ml Trizol (Gibco/Invitrogene, Calsbad, Calif., USA). The islets isolated from the NMRI mice were incubated overnight at 37° C. and 95% normal atmosphere/5% CO2 in 10 ml RPMI 1640 containing 11.1 mmol/L glucose supplemented with penicillin G and 100 μg/mL streptomycin (all Gibco/Invitrogene, Calsbad, Calif., USA).
For each group, islets from 3-4 mice (180-200 islets) were pooled in 1 ml Trizol reagent (Gibco/lnvitrogene, Calsbad, Calif., USA) before RNA purification. Total RNA was extracted according to the manufactures' instructions. RNA was quantified by measuring absorbance at 260 and 280 nm. The quality of the RNA was checked by the Agilent 2100 bioanalyzer (Agilent, Santa Clara, USA). […]

[2] = ISV group of KKAy mice, age 5 weeks, before treatment
[3] = KKAy mice, 20 mg/kg BW in diet, after 9-week treatment

Structure (SMILES): C[C@@]12CC[C@@H]3[C@@](CC[C@H]4[C@@]3(C)CCC[C@@]4(C)C(=O)O)(CC1=O)C2 (single isomer, unassigned; ent-16) [ISV, ent-16-ketobeyeran-19-oic acid]
- reduction of plasma insulin increase compared to the KKAy control (KKAy-mice; 9 weeks treatment): 62%
- reduction of the plasma TG increase in the KKAy (KKAy-mice; 9 weeks treatment): 74%
- glucose-insulin index at start of study (KKAy-mice; ISV group of KKAy mice before treatment, product of plasma insulin and plasma glucose): 8.6 unit
- plasma glucose at start of study (KKAy-mice; [2]): 8.9 mmol/L
- plasma insulin at start of study (KKAy-mice; [2]): 1.0 ng/mL
- plasma TG level at age 5 week (KKAy-mice; ISV group of KKAy mice, before treatment): 1.25 mmol/L
- reduction in plasma glucose compared to the increase for the KKAy (KKAy-mice; KKAy at 5 weeks as baseline, 9 weeks treatment): 59%
- plasma TG level at age 14 weeks (KKAy-mice; KKAy mice after 9 weeks treatment): 2.02 mmol/L
- glucose-insulin index at the end of the study (KKAy-mice; KKAy mice after 9 weeks treatment, product of plasma insulin and plasma glucose): 1596 unit
- plasma glucose at the end of the study (KKAy-mice; [3]): 16.2 mmol/L
- plasma insulin at the end of the study (KKAy-mice; [3]): 80.9 ng/mL
- fold increase of plasma glucose during study period (KKAy-mice; KKAy mice, 20 mg/kg BW, 9 weeks, KKAy control 2.8 fold): 1.8 fold
- fold increase of plasma insulin during study period (KKAy-mice; KKAy mice, 20 mg/kg BW, 9 weeks, KKAy control 266 fold): 81 fold
- increase of TG level at age 14 weeks compared to age 5 week (KKAy-mice; KKAy mice, 9 weeks treatment, KKAy control 192%): 62%
- reduction in weight at the end of the 9 week treatment period (KKAy-mice; KKAy mice, vs. KKAy control): 13%
- body weight after 5 weeks (KKAy-mice; KKAy mice, KKAy control 38.6 g): 29.9 g
- body weight after 9 weeks treatment (KKAy-mice; KKAy mice, KKAy control 41.6 g): 36.3 g
- insulin content of islets compared to the KKAy control, higher [1]: 2.4 fold
- up regulation of the GLUT2 gene transcript (GLUT2; RT-PCR): more than 3 fold
- increased expression of GLUT2, ISV group vs. control group (GLUT2; normalized to 18S rRNA): 201%
